Legend:
[1] = system: primary preadipocytes from IGFBP-2−/− mice; assay: Differentiation of primary preadipocytes (immunoblot of adiponectin, aP2, PPARγ; Oil Red O staining); type: cell-based, mouse; details: for relative potency as inhibitor of adipogenesis / preadipocyte differentiation (in words): comparison between peptides and proteins, immunoblot and Oil Red O; for reduction of PPARγ expression / reduction of aP2 expression / reduction of adiponectin expression: peptide 6 μg/ml in differentiation medium vs differentiation medium only, immunoblot relative to β-actin; for reduction of PPARγ expression / reduction of aP2 expression / reduction of adiponectin expression / % suppression of adiponectin: mean±SE; for % suppression of adiponectin: N=3
Method: Primary preadipocytes were isolated from epididymal fat pads of 6 week old IGFBP-2^−/− mice. The cells were cultured using a previously described method (Boney, C M et al., 1994). The fat pads were weighed and the tissue was digested with an equal volume (W/V) of collagenase type A (Roche Applied Science, Indianapolis, Ind.) in HEPES buffer (0.1M and 1.5% BSA) for 45 min at 37° C. Following complete digestion, the preadipocytes were separated from the stromal vascular cells by centrifugation at 500×g for 5 min. The pelleted cells were washed with DMEM containing 30 mM glucose (Gibco, Grand Island, N.Y.) and passed through a 100 μm mesh filter (BD Biosciences, Bedford, Mass.). The cells were then plated in 6-well plates (Falcon Corp., Franklin Lakes, N.J.) at a density of 1.2-1.5×10^4 cells/ml in DMEM containing 30 mM glucose supplemented with penicillin (100 U/ml), streptomycin (100 μg/ml), and 10% fetal bovine serum hereafter referred to as standard medium. The cultures had the medium changed every 2 days until they reached confluency. Two day post-confluent cells were then exposed to differentiation medium (serum free DMEM containing 0.5 mM IBMX, 1 μM dexamethasone, and 5 μg/mL insulin) and incubated for 2 days. Experimental treatments that were added to this medium included either wild type IGFBP-2 (3 μg/ml), HBD1 peptide (6 μg/ml), HBD1 control peptide (6 μg/ml), HBD2 peptide (6 μg/ml), HBD2 control peptide (6 μg/ml), HBD1 mutant IGFBP-2 (3 μg/ml) or the HBD2 mutant IGFBP-2 (3 μg/ml). Cultures were maintained for two additional days in the standard medium supplemented with 5 μg/ml insulin. Thereafter, the cultures were kept in the fresh standard medium without insulin for additional two days.
After treatment, the cells were rinsed with PBS for two times and fixed with 10% formalin for 30 min at room temperature. After rinsing with distilled water for twice, 100% propylene glycol (Poly Scientific, Bay Shore, N.Y.) was added and incubated for 5 min. Before adding Oil Red O solution (Poly Scientific, Bay Shore, N.Y.), propylene glycol was removed. The cultures were incubated for 10 min at 60° C. Removing Oil Red O solution, the cultures were incubated with 80% propylene glycol for 5 min, After incubation, the cultures were rinsed with tap water twice. Images were captured using an Olympus IX81 inverted microscope.
Differentiated adipocytes were lysed in ice-cold lysis buffer (Xi et al., 2008). After centrifugation at 14,000×g for 10 min, solubilized proteins were quantified by the Bradford method (Thermo Scientific, Rockford, Ill.). Equal protein amounts of lysates were loaded onto a SDS-polyacrylamide gel and the proteins were separated, then transferred to an Immobilon filter and visualized by immunoblotting using the appropriate antibody. The primary antibody dilutions that were used were 1:1000 for the anti-adiponectin antibody (Affinity BioReagents, Golden, Colo.), 1:500 for the anti-PPARγ antibody (Cell Signaling Technology Inc., Beverly, Mass.), 1:2000 for the anti-apt antibody (ProSci Inc., Poway, Calif.) and 1:5000 for the anti-β-actin antibody (Sigma Chemical Company, St. Louis, Mo.). The immune complexes were visualized using enhanced chemiluminescence (Thermo Fischer Scientific, Rockford, Ill.).
Preadipocytes were prepared from mice and grown in culture as described herein. The respective mouse and human peptides were added to cells and the cells were lysed and the lysates were run on SDS gels as described. Immunoblotting for adiponectin was carried as described. Three concentrations of each peptide, 0.7, 2.0 and 6.0 μg/ml, were compared. The results were expressed as % suppression mean±SE(N=3) and were as follows.
Cell culture of primary preadipocytes. Preadipocytes were isolated from epididymal fat pads of IGFBP-2^−/− mice. The cultures had the medium changed every 2 days until they reached confluency. […]

IGFBP-2−/− mice [2] = assay: Triglyceride content of right inguinal fat pad (colorimetric); type: in vivo, mouse; details: after 12 weeks; vs control peptide
Method: Body fat and lean muscle mass was measured at weeks 0 and 12 of treatment by magnetic resonance imaging analysis (EchoMRI-100, Echo Medical Systems, Houston, Tex.), a technique that measures fat mass and lean mass in unanesthetized animals (Kelly S A, et. al., 2010). After completion of 12 weeks of treatment, the mice were sacrificed. Blood was collected by cardiac puncture and allowed to sit for 4 hours before centrifuging at 3500 rpm×15 min. The serum was aspirated and stored at −20° C. until analysis. Abdominal inguinal and visceral fat pads were carefully dissected from each animal according to defined anatomical landmarks. […] The right inguinal fat pad was dissected separately and the triglyceride content of this tissue was determined by a colorimetric analysis (Pointe Scientific, Canton, Mich.), as previously described (Dann H, Kimura S 1992). Serum adiponectin and leptin were measured by ELISA following manufacturer's instructions (Millipore, Billerica, Mass.).
Body composition and serum adipokine measurement. Body fat and lean mass were measured at weeks 0 and 12 of treatment by magnetic resonance imaging analysis (EchoMRI-100, Echo Medical Systems, Houston, Tex.), using unanesthetized animals. […]

IGFBP-2−/− mice [3] = assay: Adipocyte area measurement in peri-gonadal adipose tissue; type: in vivo, mouse; details: after 12 weeks
Method: Adipocyte area measurement. Samples of peri-gonadal adipose tissue were fixed in 10% formalin and embedded in paraffin. Multiple sections were obtained from each sample and stained with hematoxylin and eosin. Digital images of each section were acquired using an Olympus BX61 microscope and cell areas were traced manually for at least 200 cells per section by an investigator blinded to the sample identity, using Image J software (1ASS). Four sections from each adipose depot were analyzed to derive the mean cell area per mouse 6 mice per group).

Sequence	relative potency as inhibitor of adipogenesis / preadipocyte differentiation (in words) [1]	relative potency as inhibitor of adipogenesis / preadipocyte differentiation (in words) ([1]; listed as mouse HBD1 peptide)	reduction of PPARγ expression [1]	reduction of aP2 expression [1]	reduction of adiponectin expression [1]	reduction of triglyceride content in the inguinal fat pad (IGFBP-2−/− mice [2])	adipocyte size (IGFBP-2−/− mice [3])	% suppression of adiponectin ([1]; 0.7 μg/ml peptide)	% suppression of adiponectin ([1]; 2.0 μg/ml peptide)	% suppression of adiponectin ([1]; 6.0 μg/ml peptide)	potency in inhibiting preadipocyte differentiation relative to the HBD1 peptide ([1]; HBD2 peptide vs HBD1 peptide)	relative potency as inhibitor of adipogenesis / preadipocyte differentiation (in words) ([1]; listed as human peptide)
KHLSLEEPKKLRP [HBD1 peptide]	less activity	equivalent in inhibiting preadipocyte differentiation	47±9%	51±2%	66±10%	22±2%	12406±748 pixels/cell	–	–	–	–	–
KHGLYNLKQCKMSLNGQR [HBD2 peptide]	most potent inhibitors of adipogenesis	–	67±7%	completely inhibited	completely inhibited	37±9%	11967±716 pixels/cell	49.4 ± 10%	87.9 ± 6.2%	96.9 ± 7.0%	1.8 fold	equipotent

Reference: patent publication US20160039897A1, “COMPOUNDS AND METHODS FOR TREATING OBESITY AND CONTROLLING WEIGHT” (THE UNIVERSITY OF NORTH CAROLINA AT CHAPEL HILL, priority 2013, published 2016)
